# Source: patent publication US5962502A, “Polyamidic acid derivatives with antigastrin activity, a method for their preparation, and their pharmaceutical use” (priority 1993, dated 1999)
# “And” between values parts separate entries of the source, which are not always exact repeats. Equal entries are not always repeated.
# How the values were obtained:
# [1] = biological target: T1, gastrin receptors or type-B cholecystokinin (CCK-B) receptors (Oryctolagus cuniculus, UniProt P46627); assay: Inhibition of the gastrin-induced increase of cytosolic calcium in rabbit gastric mucous-membrane cells (Fura 2); assay type: cell-based; details: for Ratio IC50 Binding cortex / IC50 (gastric mucous cells): binding values taken from Table 3; for CCK-B-antagonistic activity IC50 (II): data taken from Table 4 (rabbit gastric mucous cells), reprinted in Table 6; for IC50, inhibition of the increase of cytosolic calcium: rabbit gastric mucous cells enriched in parietal cells, gastrin 5×10^-8
# T1 construct: Rabbit gastric mucous-membrane cells were prepared by conventional techniques; endogenous in cells; host or cells: freshly isolated rabbit gastric mucosal cells, enriched by elutriation to about 70% parietal cells
# T1 sequence (P46627 1-452): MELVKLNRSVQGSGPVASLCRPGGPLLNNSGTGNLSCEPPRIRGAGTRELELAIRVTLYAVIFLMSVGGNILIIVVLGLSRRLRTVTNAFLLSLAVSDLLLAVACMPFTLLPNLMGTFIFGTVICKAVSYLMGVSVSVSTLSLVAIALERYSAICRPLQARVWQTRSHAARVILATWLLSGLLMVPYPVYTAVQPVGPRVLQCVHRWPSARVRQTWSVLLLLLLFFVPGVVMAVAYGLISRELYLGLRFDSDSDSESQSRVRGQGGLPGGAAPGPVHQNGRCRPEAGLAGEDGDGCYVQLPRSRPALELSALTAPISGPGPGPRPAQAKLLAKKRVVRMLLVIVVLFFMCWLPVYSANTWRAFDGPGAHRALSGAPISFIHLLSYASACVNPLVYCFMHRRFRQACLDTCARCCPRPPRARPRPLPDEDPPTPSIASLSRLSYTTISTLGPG
# From the text: The parietal cells of the gastric mucous membrane are responsible for the secretion of HCl. They have specific membrane receptors which can be activated by gastrin and which have been defined as gastrin receptors or type-B cholecystokinin (CCK-B) receptors. Since it has been observed that the activation of the CCK-B receptors by gastrin leads to an increase in the cytosolic levels of calcium ions, a technique involving the measurement of the increase in intracellular calcium induced by gastrin in the presence and in the absence of the compounds of the invention was used as an index of the antigastrin activity of the compounds. Rabbit gastric mucous-membrane cells were prepared by conventional techniques with the use of collagenase and pronase as digestive enzymes. The cellular preparation obtained by the enzymatic digestion was composed of parietal cells, zymogen cells and mucous-membrane cells. […] The cells were then washed and resuspended in a saline solution buffered with HEPES containing, in mM: […] Each measurement was carried out on cells in suspension (0.8×10^6 /ml) at a thermostatically-controlled temperature of 37° C. and with constant magnetic stirring. The fluorescence was recorded with the use of a spectrofluorometer. The operative wavelengths were 340/380 nm for excitation and 505 nm for emission. […] Biol. Chem. 260 (1985), 3440]. […] The results thus obtained for some compounds of the invention are given in Table 4, which also gives an index derived from the ratio between the peripheral antigastrin activity just described and the displacement activity found in the test on binding to the guinea-pig cortex receptors described above.
# [2] = system: acid secretion induced by pentagastrin; assay: Acid secretion induced by pentagastrin in the anaesthetized rat; assay type: in vivo; details: iv, 1 h, I.V. bolus, pentagastrin 30 mcg/kg/h, read-out: Activity (ID50), inhibition of the acid secretion induced by pentagastrin
# Experimental: The activity of the compounds of the invention against gastric secretion performed by means of a mechanism with an antigastrin effect, was examined in vivo in anaesthetized rats with the use of male animals weighing about 200 g. Gastric secretion was stimulated with pentagastrin and Lai's method [Gut 5, (1964), 327-341 ] was used, with slight modification.
# After tracheotomy, the oesophagus and duodenum were cannulated. A tepid solution (37° C.) of 0.25 mM NaOH was perfused and was passed through the stomach by means of a peristaltic pump at a constant flow-rate of 1 ml/minute. After stabilization for 20 minutes, the stimulant, dissolved in a physiological solution, was perfused for 120 minutes at a dose of 30 mcg/kg/h, in a volume of 0.95 ml/hour. After perfusion for 60 minutes (the basal stimulation), the product under test was administered intravenously (I.V.) as a bolus and perfusion of the stimulant was continued for a further 60 minutes. The acid secretion was recorded continuously as a function of time.
# The activity of the product was evaluated as the percentage reduction of secreted acidity after the administration of the product, in comparison with the basal acidity measured during the first 60 minutes of collection in the presence of pentagastrin alone.
# The antagonistic compounds tested were administered in various doses so that an ID50, that is, the dose (in mg/kg I.V.) which could inhibit the effect of pentagastrin by 50%, could be calculated.
# CCK-A = biological target: T2, CCK-A (Cavia porcellus, UniProt Q63931); assay: Anti-CCK-A activity on guinea-pig gall bladder stimulated in vitro by CCK-8; details: for Ratio I/II (CCK-A IC50 / CCK-B IC50): gall bladder IC50 over gastric mucous cells IC50; for IC50: guinea-pig gall bladder in vitro, CCK-8 10 ng/ml, read-out: CCK-A-antagonistic activity IC50 (I)
# T2 construct: A longitudinal strip of guinea-pig gall-bladder was put in a bath for isolated organs; from tissue; host or cells: guinea-pig gall bladder longitudinal strip
# T2 sequence (Q63931 1-430): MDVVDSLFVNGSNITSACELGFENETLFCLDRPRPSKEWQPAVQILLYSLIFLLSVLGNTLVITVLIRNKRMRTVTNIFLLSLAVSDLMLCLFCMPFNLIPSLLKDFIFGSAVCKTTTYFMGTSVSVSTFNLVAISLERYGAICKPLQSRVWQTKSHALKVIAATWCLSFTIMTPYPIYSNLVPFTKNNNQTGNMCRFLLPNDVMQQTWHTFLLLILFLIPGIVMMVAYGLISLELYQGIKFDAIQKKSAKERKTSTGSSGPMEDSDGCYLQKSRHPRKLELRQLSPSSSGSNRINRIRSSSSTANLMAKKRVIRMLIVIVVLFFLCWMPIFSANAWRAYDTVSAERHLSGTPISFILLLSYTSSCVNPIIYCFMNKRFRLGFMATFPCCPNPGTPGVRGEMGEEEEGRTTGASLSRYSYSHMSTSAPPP
# Experimental: The experimental model used was guinea-pig gall bladder stimulated in vitro by CCK-8, with the use of lorglumide as the reference standard. A longitudinal strip of guinea-pig gall-bladder was put in a bath for isolated organs in the presence of Krebs buffer at a temperature of 32° C., with continuous oxygenation with an oxygen-CO2 mixture (95-[…]). The isometric contractions were detected by means of a force transducer and recorded.
# central CCK-B receptor = biological target: T3, central CCK-B receptor (Cavia porcellus, UniProt H0VZC5); assay: Inhibition of the binding of [3-H][N-methyl-N-leucine]CCK-8 to guinea-pig cortical membranes; details: for IC50: guinea-pig cortical membranes, 150 minutes at 25° C.
# T3 construct: Cerebral cortices of male white guinea-pigs were thus used; from tissue; host or cells: cerebral cortex membranes of male white guinea-pigs
# T3 sequence (H0VZC5 1-426): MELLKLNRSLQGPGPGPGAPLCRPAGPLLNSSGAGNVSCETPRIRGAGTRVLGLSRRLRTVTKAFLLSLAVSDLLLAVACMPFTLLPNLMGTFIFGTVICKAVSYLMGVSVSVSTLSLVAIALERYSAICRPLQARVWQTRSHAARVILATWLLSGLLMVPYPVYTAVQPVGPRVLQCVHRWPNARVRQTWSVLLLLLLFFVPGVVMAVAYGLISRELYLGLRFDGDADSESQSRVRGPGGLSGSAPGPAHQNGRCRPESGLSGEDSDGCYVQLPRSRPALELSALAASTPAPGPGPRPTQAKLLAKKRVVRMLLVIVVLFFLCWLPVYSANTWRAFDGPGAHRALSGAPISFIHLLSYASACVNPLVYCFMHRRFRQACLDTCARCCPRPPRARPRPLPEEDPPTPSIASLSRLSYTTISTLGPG
# How it was run: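 Male guinea-pig cerebral cortex membranes (about 300 mcg protein/ml) incubated with non-sulphated [3-H]-labelled CCK-8 tracer and compound 150 minutes at 25° C. Pellet radioactivity counted by liquid scintillation; nonspecific binding defined with 5.10^-6 M CCK-8.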
# mouse = assay: Black and White Box test in the mouse (anxiolytic activity); assay type: in vivo; details: for LIGHT TIME TOTAL TIME / LIGHT-DARK MOVEMENTS / MOV. DARK % TOTAL MOV. / TOTAL MOVEMENTS: 5 minutes
# Experimental: It has recently been postulated that the central CCK-B receptor has an important role in anxiety. This is in accordance with studies also carried out in man, which have shown that the central CCK-B mechanisms have an important function in the mediation of panic attacks [Bradwejn, H. et al; J. Psychopharmacology 6 (1992), 345]. […] This experimental model, which was carried out according to Costall et al [Pharm. Biochem. Behav. 32 (1989), 777-785], used a box with dimensions of 45×21×21(h) cm divided into 2 compartments which communicated with one another through a 13×5 cm hole. The smaller compartment (1/3 of the total area) had black walls, whereas the larger had transparent walls and was illuminated by a lamp which was placed 20 cm above the box and supplied light at 20W. Under the floor there was an activity meter which recorded the movements performed by the animal in the individual compartments. The experiment was started by placing the animal in the centre of the illuminated box; as well as movements, the time which the animal spent in the dark and in the light areas and the number of movements between the 2 compartments were then recorded for 5 minutes. A control animal generally preferred to stay in the dark compartment where it felt better protected from an unusual environmental situation which put it in a state of anxiety. In this experimental model, a compound having anxiolytic activity decreased the % of movements into the dark in comparison with the total movements, increased the movements between the two light-dark compartments, and increased the % of time spent in the light in comparison with the total time.
# The results obtained are shown in Table 7, where the activities obtained with compounds 9, 21 and 51 are given, tested in comparison with diazepam.
smiles,measurement,setting,value
"O=C(O)CC[C@@H](NC(=O)c1cc(Cl)cc(Cl)c1)C(=O)N1CCC2(CCCC2)CC1 [CR 2194, (R)-5-(8-azaspiro[4.5]decan-8-yl)-4-(3,5-dichloro-benzoylamino)-5-oxopentanoic acid, reference compound]",Ratio IC50 Binding cortex / IC50 (gastric mucous cells),[1],6.3
same,CCK-B-antagonistic activity IC50 (II),[1],380 nM
same,"IC50, inhibition of the increase of cytosolic calcium",[1],380 nM
same,ED50,[2],11 mg/kg and 24.9 µmol/kg
same,Ratio I/II (CCK-A IC50 / CCK-B IC50),CCK-A,35.5
same,IC50,CCK-A,13500 nM
O=C(CC[C@@H](NC(=O)c1cc(Cl)cc(Cl)c1)C(=O)N1CCC2(CCCC2)CC1)N[C@@H](Cc1ccccc1)C(=O)O [Compound 10],Ratio IC50 Binding cortex / IC50 (gastric mucous cells),[1],3.7
same,CCK-B-antagonistic activity IC50 (II),[1],200 nM
same,"IC50, inhibition of the increase of cytosolic calcium",[1],200 nM
same,ED50,[2],28.4 mg/kg and 48.3 µmol/kg
same,IC50,central CCK-B receptor,730 nM
same,Ratio I/II (CCK-A IC50 / CCK-B IC50),CCK-A,179
same,IC50,CCK-A,35800 nM
O=C(O)C[C@@H](Cc1ccccc1)NC(=O)CC[C@@H](NC(=O)c1cc(Cl)cc(Cl)c1)C(=O)N1CCC2(CCCC2)CC1 [Compound 15],Ratio IC50 Binding cortex / IC50 (gastric mucous cells),[1],7.3
same,CCK-B-antagonistic activity IC50 (II),[1],30 nM
same,"IC50, inhibition of the increase of cytosolic calcium",[1],30 nM
same,ED50,[2],13.5 mg/kg and 22.4 µmol/kg
same,times more active than the corresponding diastereoisomer at the carbon atom (**),"central CCK-B receptor; binding, guinea-pig cortex",1.5 times
same,IC50,central CCK-B receptor,220 nM
same,Ratio I/II (CCK-A IC50 / CCK-B IC50),CCK-A,160
same,IC50,CCK-A,4800 nM
CN(C(=O)CC[C@@H](NC(=O)c1cc(Cl)cc(Cl)c1)C(=O)N1CCC2(CCCC2)CC1)c1ccccc1C(=O)O [Compound 51],EFF. % VS CONTROL (LIGHT TIME TOTAL TIME),mouse; 0.1 mg/kg IP,12%
same,EFF. % VS CONTROL (LIGHT-DARK MOVEMENTS),mouse; 0.1 mg/kg IP,19%
same,EFF. % VS CONTROL (MOV. DARK % TOTAL MOV.),mouse; 0.1 mg/kg IP,-12%
same,LIGHT TIME TOTAL TIME,mouse; 0.1 mg/kg IP,27.0%
same,LIGHT-DARK MOVEMENTS,mouse; 0.1 mg/kg IP,17.6
same,MOV. DARK % TOTAL MOV.,mouse; 0.1 mg/kg IP,61%
same,TOTAL MOVEMENTS,mouse; 0.1 mg/kg IP,472
same,EFF. % VS CONTROL (LIGHT TIME TOTAL TIME),mouse; 1.0 mg/kg IP,48%
same,EFF. % VS CONTROL (LIGHT-DARK MOVEMENTS),mouse; 1.0 mg/kg IP,34%
same,EFF. % VS CONTROL (MOV. DARK % TOTAL MOV.),mouse; 1.0 mg/kg IP,-14%
same,LIGHT TIME TOTAL TIME,mouse; 1.0 mg/kg IP,35.6%
same,LIGHT-DARK MOVEMENTS,mouse; 1.0 mg/kg IP,19.8
same,MOV. DARK % TOTAL MOV.,mouse; 1.0 mg/kg IP,59%
same,TOTAL MOVEMENTS,mouse; 1.0 mg/kg IP,484
same,EFF. % VS CONTROL (LIGHT TIME TOTAL TIME),mouse; 10.0 mg/kg IP,16%
same,EFF. % VS CONTROL (LIGHT-DARK MOVEMENTS),mouse; 10.0 mg/kg IP,37%
same,EFF. % VS CONTROL (MOV. DARK % TOTAL MOV.),mouse; 10.0 mg/kg IP,-10%
same,LIGHT TIME TOTAL TIME,mouse; 10.0 mg/kg IP,27.8%
same,LIGHT-DARK MOVEMENTS,mouse; 10.0 mg/kg IP,20.3
same,MOV. DARK % TOTAL MOV.,mouse; 10.0 mg/kg IP,62%
same,TOTAL MOVEMENTS,mouse; 10.0 mg/kg IP,436
same,"anxiolytic activity, result in words","mouse; Black and White Box test, IP",anxiolytic activity without sedative activity
same,increase in the number of light-dark movements in comparison with the controls,mouse; summary over doses,20-30%
same,Ratio IC50 Binding cortex / IC50 (gastric mucous cells),[1],2.4
same,"IC50, inhibition of the increase of cytosolic calcium",[1],50 nM
same,ED50,[2],9 mg/kg and 15.7 µmol/kg
same,IC50,central CCK-B receptor,120 nM
